103 compounds from PubChem BioAssay AID1996 can be followed below.

Molecules are shown by their SMILES. Values after ≈ are worked out from the molar mass of the structure shown.

The term kinetic solubility denotes solubility judged after dilution from a stock solution rather than from solid.

For this data set the following is noted: buffer; pH 7.4; 200.0 µM.
On to `CCN(CC)S(=O)(=O)c1ccc(O)c(C(=O)OCC(=O)NC23CC4CC(CC(C4)C2)C3)c1`, for which the solubility (kinetic) was 25.5 µg/mL (≈ 54.9 µM).
The compound `CSc1ccccc1C(=O)N(C)C(c1ccccc1)c1ccccc1` returned a kinetic solubility of 10.6 µg/mL (≈ 30.5 µM).
The same measure for `O=C(Nc1ccc2c(c1)OCO2)c1cc(-c2ccccc2Cl)on1`: 1.7 µg/mL (≈ 4.96 µM).
The same measure for `Cc1noc(C)c1C(=O)OCC(=O)Nc1ccc(C(N)=O)cc1`: 42.2 µg/mL (≈ 133 µM); for `CC(C)CCNC1c2ccccc2C(=O)N1Cc1ccccc1.Cl` (stereo not drawn): 6.2 µg/mL; for `CCC1Oc2ccc(C)cc2N(CC(=O)N2CCCC2)C1=O` (stereo not drawn): > 45.4 µg/mL.
Consider `N#Cc1ccsc1NC(=O)c1ccc(Cl)c([N+](=O)[O-])c1`, for which the kinetic solubility was found to be 2.9 µg/mL (≈ 9.42 µM).
The compound `O=C(NCc1ccco1)/C(=C/c1ccccc1)NC(=O)c1ccco1` showed a kinetic solubility of 42.4 µg/mL (≈ 126 µM).
For `Cc1cccc(C)c1NC(=O)c1ccc2c(c1)CCN2S(C)(=O)=O`, the kinetic solubility was found to be 8.3 µg/mL (≈ 24.1 µM).
As for `CN(C(=O)CSc1nc(-c2cccs2)nc2ccccc12)C1CCS(=O)(=O)C1` (stereo not drawn), the solubility (kinetic) was determined as 2.5 µg/mL (≈ 5.77 µM).
For `O=C(Nc1nccs1)C1(c2ccc(Cl)cc2)CC1`, the solubility (kinetic) is 14.2 µg/mL (≈ 50.9 µM). Compared with the last compound, the solubility kinetic is about 5.7-fold higher.
In the case of `Cl.c1cncc(CNCc2ccco2)c1`, the solubility (kinetic) is > 33.7 µg/mL.
As for `Cc1ccsc1-c1cc(C(=O)O)c2c(ccc3ccccc32)n1`, the solubility (kinetic) was > 47.9 µg/mL.
For the compound `O=C1Nc2ccc([N+](=O)[O-])cc2OC1CCN1CCOCC1` (stereo not drawn), the kinetic solubility was > 46.1 µg/mL.
The compound `Cc1cc2cc(CCNC(=O)CCCc3ccccc3)c(=O)[nH]c2cc1C` yielded a solubility (kinetic) of 1.7 µg/mL (≈ 4.69 µM).
As to `Cc1ccc(C(=O)OCC(=O)NC2CCCC2)cc1C`, the kinetic solubility is 15.8 µg/mL (≈ 57.4 µM).
For the compound `COCCNC(=S)Nc1ccc2[nH]c(=O)[nH]c2c1`, the kinetic solubility is > 39.9 µg/mL.
As for `COC(=O)CCCNC(=O)c1ccccn1`, the solubility (kinetic) was > 33.3 µg/mL.
In the case of `Cc1cc(C)cc(NC(=O)Nc2cccc(S(N)(=O)=O)c2)c1` it was 2.5 µg/mL (≈ 7.83 µM).
The same measure for `CCN(C(=O)CSc1nc(C)c(C)c(C)n1)C1CCS(=O)(=O)C1` (stereo not drawn): > 53.6 µg/mL.
In the case of `CCc1ccc(C(=O)Nc2cc(S(=O)(=O)N3CCOCC3)ccc2N2CCOCC2)cc1` it was 2.5 µg/mL (≈ 5.44 µM); in that of `O=c1oc2c(-c3ccc([N+](=O)[O-])cc3)cc(O)cc2s1`, < 0.6 µg/mL.
Compound `Cc1ccc2c(c1)N(Cc1cccc(C#N)c1)C=NS2(=O)=O` yielded a kinetic solubility of 8.1 µg/mL (≈ 26 µM).
The same measure for `COc1cc(CC(=O)OCC(=O)NCc2cccs2)cc(OC)c1OC`: > 56.9 µg/mL; for `O=C(c1cccc([N+](=O)[O-])c1)N1CCN(Cc2ccccc2)CC1`: > 48.8 µg/mL; for `COc1ccc(NC(=S)Nc2ccccc2SC)c(OC)c1`: 47.5 µg/mL (≈ 142 µM).
The same measure for `O=C1c2ccccc2C(=O)N1CC(O)COc1ccccc1Cl` (stereo not drawn): 44 µg/mL (≈ 133 µM).
Consider `O=C1NCCN1CCN1C(=O)c2ccccc2NC1c1ccccc1` (stereo not drawn), for which the solubility (kinetic) is > 50.5 µg/mL.
For the compound `Br.C=CCN1CCc2cccc3c2[C@H]1Cc1ccc(O)c(O)c1-3`, the solubility (kinetic) was 27.9 µg/mL.
The compound `Cc1cc(C)c(OCCNCc2ccccc2)c(C)c1.O=C(O)C(=O)O` yielded a kinetic solubility of 42.5 µg/mL.
`O=C(COc1ccccc1F)Nc1ccc2[nH]c(=O)[nH]c2c1` showed a kinetic solubility of 4.5 µg/mL (≈ 14.9 µM).
In the case of `COc1cc(OC)cc(C2=NC3(CCC(C)CC3)NC2=S)c1` (stereo not drawn) it was 2.2 µg/mL (≈ 6.91 µM); in that of `CC(NC(=O)C(C)N1C(=O)c2ccccc2C1=O)c1ccccc1` (stereo not drawn), > 48.4 µg/mL; in that of `O=C(O)c1ccccc1C(=O)Nc1nc(-c2ccc3ccccc3c2)cs1`, > 56.2 µg/mL.
Regarding `S=C(NCC1CCCO1)N1CCN(Cc2ccccc2Cl)CC1` (stereo not drawn), the kinetic solubility was > 53.1 µg/mL.
Consider `O=C(O)c1cc([N+](=O)[O-])c(NCCC2=CCCCC2)c([N+](=O)[O-])c1`, for which the kinetic solubility is > 50.3 µg/mL.
In the case of `O=C(NNC(=S)NCCCN1CCOCC1)c1ccncc1`, the kinetic solubility is > 48.5 µg/mL.
In the case of `Cc1ccc(NC(=O)Nc2ccc(Cl)c(Cl)c2)nc1` it was < 0.2 µg/mL; in that of `CCN(CC)C(=O)c1ccc(-c2cccs2)s1`, 32.6 µg/mL (≈ 123 µM).
Consider `COc1ccccc1NC(=O)CC(=O)c1ccccc1`, for which the solubility (kinetic) is > 40.4 µg/mL.
In the case of `Nc1nc(SCC(=O)Nc2ccc([N+](=O)[O-])cc2)n[nH]1` it was > 44.1 µg/mL; in that of `CC(C)=CC(=O)Nc1ccc(S(=O)(=O)Nc2onc(C)c2C)cc1`, > 52.4 µg/mL.
In the case of `COc1ccc(S(=O)(=O)N2CCN(C(=O)C3CC3)CC2)cc1` it was 48.6 µg/mL (≈ 150 µM).
The same measure for `CCOC(=O)C1CCN(C(=O)c2ccc(C)o2)CC1`: > 39.8 µg/mL; for `COc1ccc(CNC(=S)Nc2cccc(F)c2)cc1`: 14.6 µg/mL (≈ 50.3 µM).
On to `O=C(NC(=S)NCc1nc2ccccc2[nH]1)c1ccc(F)cc1`, for which the kinetic solubility was 45.3 µg/mL (≈ 138 µM).
In the case of `O=C(Nc1ccc(OCc2ccccc2)cc1)Nc1cccnc1` it was 1.2 µg/mL (≈ 3.76 µM); in that of `CC1CCN(C(=O)COC(=O)Cn2cnc3ccccc32)CC1`, > 47.3 µg/mL; in that of `Cc1csc(NC(=O)CSc2nncc(=O)n2N)n1`, > 44.8 µg/mL.
For the compound `O=c1[nH]c2cc(S(=O)(=O)CCO)ccc2o1`, the solubility (kinetic) is 32.4 µg/mL (≈ 133 µM).
In the case of `CC(=O)c1sc(C(C)(C)C)cc1NC(=O)CCC(=O)O` it was > 44.6 µg/mL; in that of `CC(C)(C)c1ccc2c(c1)N(CC(=O)N1CCCC1)C(=O)CO2`, > 47.5 µg/mL.
In the case of `CSc1nc2ccccc2c(=O)n1Cc1ccc(F)cc1` it was < 0.3 µg/mL; in that of `CCOC(=O)C1CCCN(C(=O)COc2ccc(C(=O)c3ccc(F)cc3)cc2)C1` (stereo not drawn), > 62 µg/mL.
In the case of `CC1Oc2ccccc2N(CC(=O)NCc2ccc3c(c2)OCO3)C1=O` (stereo not drawn) it was 18.9 µg/mL (≈ 53.3 µM); in that of `CCOc1ccc2oc(C(=O)Nc3cc(C)ccn3)c(C)c2c1`, 1.2 µg/mL (≈ 3.87 µM); in that of `O=c1ccc2cc(S(=O)(=O)NCCCc3ccccc3)ccc2[nH]1`, 1 µg/mL (≈ 2.92 µM).
As to `O=C(NCCCn1ccnc1)Nc1ccc2c(c1)OCO2`, the solubility (kinetic) is > 43.2 µg/mL.
The same measure for `Cc1ccccc1C(=O)NCCCNC(=O)c1ccccn1`: > 44.6 µg/mL; for `CCOc1ccc(NC(=O)CSc2ncn[nH]2)cc1`: > 41.7 µg/mL.
In the case of `CCOc1ccc(C(=O)NC(C)CCc2ccccc2)cc1` (stereo not drawn) it was 2.5 µg/mL (≈ 8.41 µM); in that of `O=C(Nc1ccccc1Br)c1cc[n+]([O-])cc1`, > 44 µg/mL.
The same measure for `CCOc1ccc(C(=O)NCC(=O)OCC(=O)N2CCCC2)cc1`: > 50.2 µg/mL; for `COc1cnc(-c2ccccc2)nc1OC`: 19.1 µg/mL (≈ 88.3 µM).
With `Nc1nc(NCc2ccco2)nc(Nc2ccc(F)cc2)c1[N+](=O)[O-]`, the kinetic solubility is 0.1 µg/mL (≈ 0.29 µM).
The same measure for `CC(=O)c1ccc(NC(=O)Cc2cccs2)cc1`: 37.2 µg/mL (≈ 143 µM); for `O=C(NCc1cccnc1)Nc1cc(Cl)cc(Cl)c1`: 15.2 µg/mL (≈ 51.3 µM); for `O=C1SCCC1NC(=O)C(c1ccccc1)c1ccccc1` (stereo not drawn): > 46.7 µg/mL.
With `CCCc1cc(C(=O)NC(C)C2CCCO2)cs1` (stereo not drawn), the kinetic solubility is > 40.1 µg/mL.
Consider `CC(=O)Nc1ccc(S(=O)(=O)Nc2ccc3ccccc3n2)cc1`, for which the kinetic solubility came to 14.2 µg/mL (≈ 41.6 µM).
Consider `Cc1ccsc1C(=O)OCC(=O)NCCCc1ccccc1`, for which the kinetic solubility turned out to be 6.2 µg/mL (≈ 19.5 µM).
The same measure for `Cc1ccc(OCCN2C(=O)C(=O)c3cccc(C)c32)cc1`: < 0.6 µg/mL; for `CCN(Cc1ccccc1)C(=O)c1cc2cc(OC)c(OC)cc2[nH]1`: < 0.4 µg/mL.
The same measure for `CCn1c(C)nc2cc(C(=O)NN=Cc3ccccc3OC(F)F)ccc21`: > 55.9 µg/mL; for `CC1CCC(NC(=O)c2cc(Cl)nc3ccccc23)CC1` (stereo not drawn): 2.5 µg/mL (≈ 8.26 µM); for `CC1CCCN(C(=O)CNC(=O)c2ccco2)C1` (stereo not drawn): > 37.5 µg/mL.
In the case of `CC1(/[N+]([O-])=C/c2ccc(Cl)cc2Cl)CCCCC1=O` (stereo not drawn) it was 42.9 µg/mL (≈ 143 µM); in that of `Cc1cn(S(=O)(=O)c2ccc(Cl)cc2)c(C)n1`, 8.6 µg/mL (≈ 31.8 µM).
As to `CCCCCCC(=O)Nc1ccc(S(=O)(=O)Nc2onc(C)c2C)cc1`, the solubility (kinetic) was > 56.9 µg/mL.
Take `O=C(CN1C(=O)NC2(CCOc3ccccc32)C1=O)NCCc1ccc(F)cc1` (stereo not drawn): the kinetic solubility was > 59.6 µg/mL.
With `CC1CCCC(NC(=O)COC(=O)c2ccc3c(c2)OCCO3)C1C` (stereo not drawn), the solubility (kinetic) is 5.3 µg/mL (≈ 15.3 µM).
In the case of `CC1CCCCC1NC(=O)COC(=O)CNC(=O)c1cccc(F)c1` (stereo not drawn) it was 51.2 µg/mL (≈ 146 µM).
For the compound `COC(=O)c1nccnc1C(=O)Nc1ccccc1N1CCOCC1`, the solubility (kinetic) is > 51.4 µg/mL.
Turning to `O=C(COc1ncnc2cc(Cl)ccc12)c1ccc2c(c1)OCCO2`, the solubility (kinetic) was < 0.4 µg/mL.
With `O=C(OCc1nc2ccccc2s1)c1ccco1`, the solubility (kinetic) was 35.4 µg/mL (≈ 137 µM).
On to `Cc1cc(C)nc(NC(=O)c2c(Cl)cccc2Cl)n1`, for which the kinetic solubility was > 44.4 µg/mL.
In the case of `COc1ccc(OCC(=O)Nc2ccc3c(c2)n(C)c(=O)n3C)cc1` it was 48.2 µg/mL (≈ 141 µM); in that of `Cc1ccc(Oc2ncccc2N)c2c1CCC2`, 10.1 µg/mL (≈ 42 µM).
In the case of `O=[N+]([O-])c1ncccc1OCc1ccc(Cl)c(Cl)c1` it was 0.4 µg/mL (≈ 1.34 µM); in that of `Cc1ccsc1C(=O)NCc1ccccc1Cl`, > 39.9 µg/mL.
For `Cc1ccnc(NC(=O)CCNC(=O)c2ccccc2Cl)c1`, the solubility (kinetic) was > 47.7 µg/mL.
`COc1ccc(NC(=O)COC(=O)c2ccc3ccccc3n2)cc1OC` came in with a solubility (kinetic) of 6.7 µg/mL (≈ 18.3 µM).
Take `COc1ccc(C(=O)OCC(=O)NCCc2ccc(F)cc2)cc1S(=O)(=O)N1CCOCC1`: the kinetic solubility was > 72.1 µg/mL.
As for `COc1ccc(OC)c(-c2csc(-c3cccs3)n2)c1`, the solubility (kinetic) is < 0.6 µg/mL.
The same measure for `Cc1ccc(S(=O)(=O)n2c(C)nc3ccccc32)cc1`: 2.2 µg/mL (≈ 7.68 µM).
In the case of `C[N+]1(CCOC(=O)C2(c3ccccc3)CCCC2)CCCCC1` it was > 47.5 µg/mL; in that of `O=C(Nc1ccncc1)C1CC(=O)N(Cc2ccccc2)C1` (stereo not drawn), > 44.3 µg/mL; in that of `Cc1ccc(S(=O)(=O)N2CCC(C(=O)Nc3cccnc3)CC2)cc1`, > 53.9 µg/mL.
For `CNC(=O)NC(O)C(Cl)(Cl)Cl` (stereo not drawn), the solubility (kinetic) was found to be 33.1 µg/mL (≈ 149 µM).
On to `CCC(=NCc1ccco1)c1c(O)n(C)c(=O)n(C)c1=O`, for which the kinetic solubility is > 43.7 µg/mL.
As for `CC(=O)c1sc(NCc2ccc(C)cc2)nc1C`, the kinetic solubility was determined as 38.6 µg/mL (≈ 148 µM).
In the case of `COC(=O)CC1C(=O)NCCN1C(=S)Nc1ccccc1Cl` (stereo not drawn) it was > 51.3 µg/mL; in that of `O=C(NCc1ccccc1F)C1CCCN1C(=O)Nc1cccc(F)c1` (stereo not drawn), > 53.9 µg/mL.
